# Data as given in PMC10096947 (2023).
# System: DOX aptamer (DNA, aptamer) ACCATCTGTGTAAGGGGTAAGGGGTGGT
# Test: electrochemical aptasensor, SWV, Langmuir isotherm fit
# Settings: PBS 0.1 M (Na+/K+ concentrations not given), PBS pH 7.4, room temperature, 20 min incubation, immobilised aptamer
structure (smiles),measurement,value
COc1cccc2c1C(=O)c1c(O)c3c(c(O)c1C2=O)C[C@@](O)(C(=O)CO)C[C@@H]3O[C@H]1C[C@H](N)[C@H](O)[C@H](C)O1,apparent dissociation constant,2.55 µM
